{
  "source": "paper PMC2769490",
  "about": "(Journal of the American Chemical Society, 2009)",
  "target": "rabbit muscle actin (Oryctolagus cuniculus, UniProt P68135)",
  "assay": "microcalorimetry",
  "format": "binding",
  "data": [
    {"smiles": "O=C(c1ccccc1O)c1[nH]c(Cl)c(Cl)c1-n1c(C(=O)c2ccccc2O)cc(Cl)c1Cl", "note": "[compound 6, marinopyrrole A]", "values": [
      {"measurement": "Kd", "result": "120 ± 200", "unit": "nM"}
    ]}
  ]
}
